For 19 compounds, IC50 results are on record in patent US20260274833A1 (NiKang Therapeutics, Inc., priority 2022, published 2026).

For this test, the target named is T1, CDK2 (Homo sapiens, UniProt P24941).
T1 construct: endogenous in cells; host or cells: OVCAR3 cells
Put plainly: Phospho-RB measurement in OVCAR3 cells (HTRF phospho-RB cellular kit). It is filed as cell-based. The note with it: inhibition of RB phosphorylation at S807/811 (HTRF, TR-FRET ratio 665/620), 24 h compound treatment, 0.3 to 10,000 nM. As for the experimental part:
Biological Example 1: Phospho-RB Measurement in OVCAR3 Cells
The ability of compounds of Formula (I) to inhibit CDK2 was determined in OVCAR3 cells by measuring inhibition of phosphorylation of RB protein at S780 and S807/811. Phosphorylation of RB protein at S807/811 were measured using HTRF phospho-RB cellular kits (Cat #64RBS807PEG) from Cisbio.
On Day 1, OVCAR3 cells were seeded into 96-well tissue-culture treated plates at 20,000 cells/well in 200 μL and incubated overnight at 37° C. in CO2 atmosphere. On Day 2, the cells were treated with test compounds at concentrations from 0.3 to 10,000 nM using HP D300 digital dispenser. Twenty-four hours after compound treatment, cell culture media was removed by flicking the plate and tapping the plate against clean paper towel. Immediately 30 μL 1× lysis buffer was supplemented from the kit and the plate was incubated at room temperature on shaker for 30 min. After homogenization by pipetting up and down, 8 μL cell lysate from 96-well cell culture plate was transferred to 384-well small volume white detection plate. 2 μL premixed detection solution was added and the plate was covered with sealer. To prepare the detection solution, d2 conjugated-phospho-RB antibody and Eu-cryptate conjugated phosphor-RB antibody were diluted into detection buffer following manufacturer's instruction.
Detection plates were incubated for 4 h at room temperature and read on ClarioStar (BMG Labtech) in TR-FRET mode ([…]). The TR-FRET ratio (665 nM/620 nM) was plotted against the compound concentration and normalized to DMSO controls. Half maximal inhibition concentration (IC50) values are calculated with a four-parameter logistic fit using GraphPad Prism (version 8; La Jolla, CA).
As for `O=S1(=O)CC2(CC(Nc3nccc(-c4sc(N5C6CCC5CN(CC(F)(F)F)C6)nc4-c4cccc(NS(=O)(=O)N5Cc6cccc(OC(F)F)c6C5)c4F)n3)C2)C1` [Example 33, 4-(difluoromethoxy)-N-(3-(5-(2-((2,2-dioxido-2-thiaspiro [3.3]heptan-6-yl)amino)pyrimidin-4-yl)-2-(3-(2,2,2-trifluoroethyl)-3,8-diazabicyclo-[3.2.1]octan-8-yl)thiazol-4-yl)-2-fluorophenyl) isoindoline-2-sulfonamide], the IC50 was determined as 0.153 µM.

`CC1(c2nc(-c3cccc(NS(=O)(=O)N4Cc5ccc(CO)cc5C4)c3F)c(-c3ccnc(N[C@H]4[C@@H]5CS(=O)(=O)C[C@@H]54)n3)s2)CCOCC1` [Example 12, N-(3-(5-(2-(((1R, 5S,6r)-3,3-dioxido-3-thiabicyclo[3.1.0]hexan-6-yl)amino)-pyrimidin-4-yl)-2-(4-methyltetrahydro-2H-pyran-4-yl)thiazol-4-yl)-2-fluorophenyl)-5-(hydroxymethyl)-isoindoline-2-sulfonamide]: the IC50 came to 0.0478 µM. As to `CS(=O)(=O)[C@H]1CC[C@H](Nc2nccc(-c3sc(C4(C(F)(F)F)CC4)nc3-c3cccc(NS(=O)(=O)N4CCc5ccccc54)c3F)n2)CC1` [Example 284, N-(2-fluoro-3-(5-(2-(((11,4r)-4-(methylsulfonyl)cyclohexyl)amino)pyrimidin-4-yl)-2-(1-(trifluoromethyl)-cyclopropyl)thiazol-4-yl)phenyl)-indoline-1-sulfonamide], the half-inhibitory concentration (IC50) was found to be 0.384 µM. With `CN(C1CCC1)S(=O)(=O)Nc1cccc(-c2nc(C(C)(C)C)sc2-c2ccnc(NC3CCN(S(=O)(=O)N4CCNCC4)CC3)n2)c1F` [Example 107, N-(3-(2-(tert-butyl)-5-(2-((1-(piperazin-1-yl-sulfonyl)piperidin-4-yl)amino)-pyrimidin-4-yl)thiazol-4-yl)-2-fluoro-phenyl)(N-methyl-N-cyclo-butylamine)-sulfonamide] the figure was 0.919 µM.

On to `O=S1(=O)CC2(CC(Nc3nccc(-c4sc(N5C6CCC5COC6)nc4-c4cccc(NS(=O)(=O)N5Cc6ccccc6C5)c4F)n3)C2)C1` [Example 4, N-(3-(2-(3-oxa-8-azabicyclo[3.2.1]octan-8-yl)-5-(2-((2,2-dioxido-2-thiaspiro-[3.3]heptan-6-yl)amino)pyrimidin-4-yl)thiazol-4-yl)-2-fluorophenyl)-isoindoline-2-sulfonamide], for which the IC50 turned out to be 0.139 µM. In the case of `O=S1(=O)CC2(CC(Nc3nccc(-c4sc(C56CC(C5)C6)nc4-c4cccc(NS(=O)(=O)N5CCCc6ccccc6C5)c4F)n3)C2)C1` [Example 50, N-(3-(2-(bicyclo [1.1.1]pentan-1-yl)-5-(2-((2,2-dioxido-2-thiaspiro[3.3]heptan-6-yl)amino)-pyrimidin-4-yl)thiazol-4-yl)-2-fluorophenyl)-1,3,4,5-tetrahydro-2H-benzo[c]azepine-2-sulfonamide], the IC50 worked out at 0.228 µM. As to `CC(C)(C)c1nc(-c2cccc(NS(=O)(=O)N3CCc4ccncc43)c2F)c(-c2ccnc(NC3CCN(S(C)(=O)=O)CC3)n2)s1` [Example 154, N-(3-(2-(tert-butyl)-5-(2-((1-(methylsulfonyl)-piperidin-4-yl)amino)-pyrimidin-4-yl)thiazol-4-yl)-2-fluoro-phenyl)-2,3-dihydro-1H-pyrrolo[2,3-c]-pyridine-1-sulfonamide], the IC50 was found to be 0.685 µM. Take `CC(C)(C)c1nc(-c2cccc(NS(=O)(=O)N3Cc4ccc(CC#N)cc4C3)c2F)c(-c2ccnc(NC3CC4(C3)CS(=O)(=O)C4)n2)s1` [Example 246, N-(3-(2-(tert-butyl)-5-(2-((2,2-dioxido-2-thiaspiro[3.3]heptan-6-yl)amino)-pyrimidin-4-yl)thiazol-4-yl)-2-fluoro-phenyl)-5-(cyanomethyl)-isoindoline-2-sulfonamide]: the half-inhibitory concentration (IC50) turned out to be 0.334 µM. As to `CN(C)CCN(C)S(=O)(=O)N1CCC(Nc2nccc(-c3sc(C(C)(C)C)nc3-c3cccc(NS(=O)(=O)N4Cc5ccccc5C4)c3F)n2)CC1` [Example 156, N-(3-(2-(tert-butyl)-5-(2-((1-(N-(2-(dimethylamino)ethyl)-N-methyl-sulfamoyl)piperidin-4-yl)amino)-pyrimidin-4-yl)thiazol-4-yl)-2-fluoro-phenyl)isoindoline-2-sulfonamide], the half-maximal inhibitory concentration (IC50) is 0.0903 µM. As for `CNCc1ccc2c(c1)N(S(=O)(=O)Nc1cccc(-c3nc(C(C)(C)C)sc3-c3ccnc(NC4CCN(S(C)(=O)=O)CC4)n3)c1F)CC2` [Example 160, N-(3-(2-(tert-butyl)-5-(2-((1-(methylsulfonyl)-piperidin-4-yl)amino)-pyrimidin-4-yl)thiazol-4-yl)-2-fluoro-phenyl)-6-((methylamino)methyl)-indoline-1-sulfonamide], the 50% inhibitory concentration (IC50) was 4.04 µM. Take `CC(C)(C)c1nc(-c2cccc(NS(=O)(=O)N3Cc4cccc(C(F)(F)F)c4C3)c2F)c(-c2ccnc(NC3CC4(C3)CS(=O)(=O)C4)n2)s1` [Example 201, N-(3-(2-(tert-butyl)-5-(2-((2,2-dioxido-2-thiaspiro[3.3]heptan-6-yl)amino)-pyrimidin-4-yl)thiazol-4-yl)-2-fluorophenyl)-4-(trifluoromethyl)-isoindoline-2-sulfonamide]: the 50% inhibitory concentration (IC50) stood at 0.0763 µM. The result for `CC1(c2nc(-c3cccc(NS(=O)(=O)N4Cc5ccncc5C4)c3F)c(-c3ccnc(NC4CC5(C4)CS(=O)(=O)C5)n3)s2)CCOCC1` [Example 209, N-(3-(5-(2-((2,2-dioxido-2-thiaspiro-[3.3]-heptan-6-yl)amino)pyrimidin-4-yl)-2-(4-methyltetrahydro-2H-pyran-4-yl)thiazol-4-yl)-2-fluorophenyl)-1,3-dihydro-2H-pyrrolo [3,4-c]-pyridine-2-sulfonamide] reads 0.35 µM; that for `CC1(C)CN(S(=O)(=O)Nc2cccc(-c3nc(C45CC(C(F)(F)F)(C4)C5)sc3-c3ccnc(N[C@H]4CC[C@H](S(C)(=O)=O)CC4)n3)c2F)c2ccccc21` [Example 291, N-(2-fluoro-3-(5-(2-(((1r,4r)-4-(methylsulfonyl)cyclohexyl)amino)pyrimidin-4-yl)-2-(3-(trifluoromethyl)-bicyclo[1.1.1]pentan-1-yl)thiazol-4-yl)phenyl)-3,3-dimethylindoline-1-sulfonamide], 2.75 µM.

As for `CS(=O)(=O)[C@H]1CC[C@H](Nc2nccc(-c3sc(C4(C(F)(F)F)CC4)nc3-c3cccc(NS(=O)(=O)N4CCc5ccc(Cl)cc54)c3F)n2)CC1` [Example 283, 6-chloro-N-(2-fluoro-3-(5-(2-(((1r,4r)-4-(methylsulfonyl)cyclohexyl)amino)pyrimidin-4-yl)-2-(1-(trifluoromethyl)-cyclopropyl)thiazol-4-yl)phenyl)-indoline-1-sulfonamide], the concentration for half-maximal inhibition (IC50) is 0.2 µM. With `CC(C)(C)c1nc(-c2cccc(NS(=O)(=O)N3CCC(F)(F)C3)c2F)c(-c2ccnc(NC3CC4(C3)CS(=O)(=O)C4)n2)s1` [Example 186, N-(3-(2-(tert-butyl)-5-(2-((2,2-dioxido-2-thiaspiro[3.3]heptan-6-yl)amino)-pyrimidin-4-yl)thiazol-4-yl)-2-fluoro-phenyl)-3,3-difluoropyrrolidine-1-sulfonamide] the figure was 1.18 µM; with `CNCCOc1cccc2c1CN(S(=O)(=O)Nc1cccc(-c3nc(C(C)(C)C)sc3-c3ccnc(NC4CCN(S(C)(=O)=O)CC4)n3)c1F)C2` [Example 164, N-(3-(2-(tert-butyl)-5-(2-((1-(methylsulfonyl)-piperidin-4-yl)amino)-pyrimidin-4-yl)thiazol-4-yl)-2-fluoro-phenyl)-4-(2-(methylamino)-ethoxy)-isoindoline-2-sulfonamide], 2.67 µM. With `O=S1(=O)CC2(CC(Nc3nccc(-c4sc(C56CC(C5)C6)nc4-c4cccc(NS(=O)(=O)N5CCc6cc(Cl)ccc65)c4F)n3)C2)C1` [Example 47, N-(3-(2-(bicyclo [1.1.1]pentan-1-yl)-5-(2-((2,2-dioxido-2-thiaspiro[3.3]heptan-6-yl)amino)-pyrimidin-4-yl)thiazol-4-yl)-2-fluorophenyl)-5-chloroindoline-1-sulfonamide] the figure was 0.343 µM; with `CNCc1cccc2c1CN(S(=O)(=O)Nc1cccc(-c3nc(C(C)(C)C)sc3-c3ccnc(NC4CCN(S(C)(=O)=O)CC4)n3)c1F)C2` [Example 172, N-(3-(2-(tert-butyl)-5-(2-((1-(methylsulfonyl)-piperidin-4-yl)amino)-pyrimidin-4-yl)thiazol-4-yl)-2-fluoro-phenyl)-4-((methylamino)methyl)-isoindoline-2-sulfonamide], 3.17 µM.

As to `CC(C)(C)c1nc(-c2cccc(NS(=O)(=O)N3CCC4(CC4)C3)c2F)c(-c2ccnc(NC3CCN(S(=O)(=O)N4CCNCC4)CC3)n2)s1` [Example 175, N-(3-(2-(tert-butyl)-5-(2-((1-(piperazin-1-ylsulfonyl)piperidin-4-yl)amino)-pyrimidin-4-yl)thiazol-4-yl)-2-fluoro-phenyl)-5-azaspiro [2.4]heptane-5-sulfonamide], the half-maximal inhibitory concentration (IC50) was determined as 0.943 µM.

Usually IC50 stands for the concentration needed to halve the response being measured.
